In patent US20220395553A1, “CXCR4 ANTAGONIST PEPTIDES” (COHBAR, INC., priority 2019, published 2022):
Peptide text beside a SMILES is read from it.

Target: human CXCR4 (Homo sapiens, UniProt P61073)
Assay: CXCR4/CXCL12 binding, HTRF format, single concentration (Example 23)
Design: host or cells: HEK293 (Tag-lite CXCR4 cells, frozen aliquots, transient expression)
Details: 15 nM CXCR4R fluorescent probe, 3 hours, HEK293 Tag-lite CXCR4 cells
Procedure, shortened: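 Tag-lite CXCR4 cells were exposed to peptide at 400 nM final with 15 nM (EC80) fluorescent CXCR4 probe for 3 h at room temperature. HTRF was read, and the 665/620 nm ratio ×10,000 measured probe bound to terbium-labelled receptor.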

human CXCR4, sequence (P61073 whole entry): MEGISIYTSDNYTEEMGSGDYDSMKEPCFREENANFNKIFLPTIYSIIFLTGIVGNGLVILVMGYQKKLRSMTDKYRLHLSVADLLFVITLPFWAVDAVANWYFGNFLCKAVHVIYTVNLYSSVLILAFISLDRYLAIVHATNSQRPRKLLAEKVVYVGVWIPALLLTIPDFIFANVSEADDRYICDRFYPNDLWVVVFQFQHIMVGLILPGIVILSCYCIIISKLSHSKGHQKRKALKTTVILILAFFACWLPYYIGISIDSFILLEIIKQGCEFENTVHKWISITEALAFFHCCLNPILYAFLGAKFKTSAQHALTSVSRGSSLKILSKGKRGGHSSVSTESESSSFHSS

SMILES: CC(C)C[C@H](NC(=O)[C@H](CO)NC(=O)[C@H](CO)NC(=O)[C@H](CCCNC(=N)N)NC(=O)[C@@H](NC(=O)[C@H](CO)NC(=O)[C@H](Cc1c[nH]cn1)NC(=O)[C@H](Cc1c[nH]cn1)NC(=O)[C@H](Cc1ccc(O)cc1)NC(=O)[C@H](CCCNC(=N)N)NC(=O)[C@H](CCC(=O)O)NC(=O)[C@@H](N)CC(C)C)C(C)C)C(=O)N[C@@H](CCCNC(=N)N)C(=O)N1CCC[C@H]1C(=O)N[C@@H](Cc1ccc(O)cc1)C(=O)N[C@H](C(=O)N[C@@H](CCCCN)C(=O)O)[C@@H](C)O [compound 4] (H-LERYHHSVRSSLRPYTK-OH; N-terminus and C-terminus assumed)
- Percent Inhibition of CXCR4/CXCL12 Binding (400 nM peptide): 88%
